Results reported in patent US7410945B2, “Treatment of inflammatory bowel disease” (The University of Queensland, priority 2002, dated 2008).
“Also recorded” adds a separate entry of the source.

What was measured:
[1] = test system: TNBS-induced colitis in rats; assay: TNBS-induced colitis in rats, acute 24-hour study; assay type: in vivo, rat; conditions: for colon macroscopic score: scale 0-13
Protocol: Two time-frames were chosen for this study, an acute time frame (24 hours), and a chronic time frame (8-days). During the course of the study both body weight and food eaten were measured daily. In the 24-hour study, all drug treatments commenced 2 days prior to instillation of TNBS (prevention). PMX53-, prednisolone- and combination-treated rats were treated once daily, and C3a antagonist-treated rats were dosed twice daily. Rats treated with the anti-TNF-α monoclonal antibody, infliximab, were dosed intravenously on one occasion, 2 days prior to TNBS instillation.
Statistical significance was assessed at P<0.05.

[2] = test system: C5a receptor; conditions: cited from earlier work
[3] = test system: membrane attack complex; conditions: Arumugam et al, 2003; cited from earlier work
[4] = test system: TNBS-induced colitis in rats; assay: TNBS-induced colitis in rats, chronic 8-day study
Protocol: Male Wistar rats (250-300 g) were starved for 24 hours prior to being anaesthetised with ketamine (80 mg/kg i.p.) and xylazine (8 mg/kg i.p.). […] 120 mg/kg TNBS (50 mg/mL solution) along with 250 μL ethanol (100%) was then instilled to rats, which remained in the head-down position for 30 min to prevent leakage. Sham-operated rats (rats without colitis) received either saline alone or 250 μL ethanol and saline. Rats were then allowed to recover under observation.
At the completion of each experiment, rats were anaesthetized with zolazapam (50 mg/kg, IP) and xylazine (12 mg/kg, IP), and blood was collected and serum stored at −20° C. for later determination of TNF-α concentrations. Colons were dissected, and the distal 8-cm rinsed with saline and scored for clinical macroscopic damage by an independent blinded observer, using a scale of 0-13 as set out below (Bobin-Dubigeon et al, 2001). A section of the affected colon was then collected, weighed, placed in an 80° C. oven for 24 h, then reweighed and the wet-to-dry weight ratio determined as a measure of colon oedema (Rachmilewitz et al., 1989). A separate section of affected colon was also collected and homogenized with 1 mL phosphate buffered saline, sonicated for 20 seconds and centrifuged (14 000×g, 10 min). The resulting supernatant was then either stored (−20° C.) for later TNF-α determination, or used immediately in an assay for the determination of myeloperoxidase (MPO) levels. Briefly, the assay involved the addition of 20 μL substrate (o-dianisidine, 2.85 mg/mL, Sigma, U.S.A.; and 0.85% hydrogen peroxidase) to a 1:40 dilution of supernatant in phosphate buffered saline. […] Results for colon MPO content were converted to absorbance units/g tissue. Additional sections of colon were removed and stored in 10% formalin for histopathological analysis. Fixed colonic samples were embedded in paraffin wax, and sections were stained using a haematoxylin and eosin stain, photographed and examined by an independent observer in a blinded fashion. Tissue and serum TNF-α levels were determined from stored samples using an enzyme-linked immunoabsorbent assay as previously described (Arumugam et al, 2002), using undiluted samples. Results for colonic TNF-α content were then converted to pg TNF-α /g tissue.
In the 8-day study, drug-treated rats were treated both prior to colitis induction (2 days before; prevention) or following colitis induction (24 hours after; reversal).
All experimental results are expressed as means±standard error of the mean (SEM). Data analysis was performed using GraphPad Prism 3.0 software (GraphPad Software, Inc. USA). Statistical comparisons were made between drug-treated groups and colitis control animals using a one-way analysis of variance followed by a Dunnett comparison post-test analysis. Statistical significance was assessed at P<0.05.

[5] = target: T1, C3a receptor (Homo sapiens, UniProt Q16581); conditions: Finch et al, 1999; cited from earlier work
T1 sequence (Q16581 1-482): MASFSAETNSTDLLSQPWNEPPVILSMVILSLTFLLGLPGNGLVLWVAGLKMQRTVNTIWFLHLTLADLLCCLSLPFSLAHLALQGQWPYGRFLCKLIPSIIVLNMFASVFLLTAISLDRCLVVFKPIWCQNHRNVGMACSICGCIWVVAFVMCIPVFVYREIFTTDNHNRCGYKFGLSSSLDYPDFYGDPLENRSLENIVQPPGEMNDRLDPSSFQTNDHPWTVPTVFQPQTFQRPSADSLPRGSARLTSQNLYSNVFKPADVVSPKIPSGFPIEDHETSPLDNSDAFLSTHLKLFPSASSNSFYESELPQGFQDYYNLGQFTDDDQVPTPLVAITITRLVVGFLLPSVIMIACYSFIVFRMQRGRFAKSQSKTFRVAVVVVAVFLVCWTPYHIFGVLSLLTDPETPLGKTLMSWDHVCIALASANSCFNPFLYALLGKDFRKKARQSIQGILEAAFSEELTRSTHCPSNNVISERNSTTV

[6] = 8 days, pre-treated rats, haematoxylin and eosin sections, vs drug-free rats
[7] = 8 days, prior to induction (10 mg/kg/day oral and 0.3 mg/kg/day SC) or 24 h after induction (1 and 10 mg/kg/day oral), P<0.05
[8] = 8 days, prior to induction (10 mg/kg/day oral and 0.3 mg/kg/day SC) or 24 h after induction (1 and 10 mg/kg/day oral), P<0.05, listed as C5a antagonist
[9] = post-treatment (from 24 h after colitis induction; reversal)
[10] = pre-treatment (from 2 days before colitis induction)
[11] = 24 h, drug pre-treatment, vs drug-free colitis control
[12] = 24 h, pre-treated 10 mg/kg/day oral or 0.3 mg/kg/day SC, P<0.05 vs colitis control
[13] = 8 days, pre-treated 3 mg/kg IV, P<0.05
[14] = 8 days, post-treated 1 mg/kg/day SC, P>0.05
[15] = 8 days, pre-treated 1 mg/kg/day SC, P<0.05

In the case of `NC(N)=NCCC[C@H](NC(=O)COCC(c1ccccc1)c1ccccc1)C(=O)O` [SB 290157, Ph2CHCH2OCH2CO-Arg-OH, reference compound], the “colon oedema (wet-to-dry weight ratio)” value ([1]; 24 h, C3a antagonist 30 mg/kg bid IP, pre-treatment) is reported as “did not have a significant effect”, the “overall disease pathology / parameters measured” value ([1]; 24 h study) is reported as “effective in reducing some of the parameters measured; also recorded: able to modulate the pathology of IBD” and the macroscopic damage ([1]; 24 h study, 30 mg/kg i.p. twice daily, vs colitis control) is reported as “reduced the intensity of macroscopic damage”.

For AcF-[OPdChaWR] [PMX53], the “specificity for the C5a receptor over other related human receptors” value ([2]; Finch et al, 1999) is listed as “specific for the C5a receptor over other related human receptors”, the “specificity for the C5a receptor across species” value ([2]; human, rat and dog, Woodruff et al, 2001) is listed as “specific for the C5a receptor in human, rat and dog” and the “effect on the formation of the membrane attack complex” value [3] is listed as “no effect”. The colon histopathology ([4]; 8 days, post-treated 10 mg/kg/day oral (PO), FIG. 8C) was “decrease in inflammatory cell accumulation and haemorrhage formation”, the colon histopathology ([4]; 8 days, post-treated 10 mg/kg/day oral (PO), FIG. 8C, listed as C5a antagonist) was “showed an improvement in disease pathology; also recorded: IC infiltration and E, but with intact ML” and the deaths ([4]; 8 days, pre-treated 0.3 mg/kg SC) was “no deaths”. For the same compound, the colon histopathology [4, 6] was “showed an improvement in pathology”, the “colon oedema (wet-to-dry weight ratio)” value [4, 7] was “significantly lower” and the “colonic MPO levels (neutrophil accumulation)” value [4, 7] was “significantly lower”. The “colon oedema (wet-to-dry weight ratio)” value [4, 8] was “significant improvement in colon wet-to-dry weight ratios; also recorded: significant reductions in wet-to-dry weight ratios”, the “colonic MPO levels (neutrophil accumulation)” value [4, 8] was “reduced to similar levels to those of the sham-operated animals” and the mortality rate ([4]; 8 days, prior to induction (10 mg/kg/day oral and 0.3 mg/kg/day SC) or 24 h after induction (1 or 10 mg/kg/day oral)) was ≤ 20%. For the same compound, the food consumption ([4]; 8 days, prior to induction (10 mg/kg/day oral and 0.3 mg/kg/day SC) or 24 h after induction (1 or 10 mg/kg/day oral), P<0.05) was “ate significantly more food”, the food consumption ([4]; 8 days, prior to induction (10 mg/kg/day oral and 0.3 mg/kg/day SC) or 24 h after induction (1 or 10 mg/kg/day oral), P<0.05, listed as C5a antagonist) was “ate significantly more food than colitis control rats” and the “change in body weight” value ([4]; 8 days, prior to induction (10 mg/kg/day oral and 0.3 mg/kg/day SC) or 24 h after induction (1 or 10 mg/kg/day oral), P<0.05 vs colitis control) was “lost significantly less body weight”. For the same compound, the “change in body weight” value ([4]; 8 days, prior to induction (10 mg/kg/day oral and 0.3 mg/kg/day SC) or 24 h after induction (1 or 10 mg/kg/day oral), P<0.05 vs colitis control, listed as C5a antagonist) was “gained significant weight; also recorded: gained substantial weight over the 8 days, with significantly higher weights compared to colitis control rats”, the colon macroscopic score ([4]; Day 8, prior to induction (10 mg/kg/day oral and 0.3 mg/kg/day SC) or 24 h after induction (1 or 10 mg/kg/day oral), P<0.05) was “significantly lower colon macroscopic scores” and the colon macroscopic score ([4]; Day 8, prior to induction (10 mg/kg/day oral and 0.3 mg/kg/day SC) or 24 h after induction (1 or 10 mg/kg/day oral), P<0.05, listed as C5a antagonist) was “significantly improved macroscopic scores”. For the same compound, the “colonic tissue TNF-α levels” value ([4]; after 8 days, vs drug-free colitis control, P<0.05) was “significantly lower”, the mortality ([4]; over 8 days, vs drug-free colitis control (39%)) was “reduced mortality” and the “overall disease parameters / markers” value [4, 9] was “significant reduction in all disease markers”. For the same compound, the “overall disease parameters / markers” value [4, 10] was “markedly reduced all the disease markers measured”, the overall disease pathology ([4]; rat model of chronic colitis, pre- and post-treatment) was “both prevents and reverses disease pathology” and the “colon TNF-α levels” value ([1]; 24-hour study) was “significantly reduced”. The colon oedema ([1]; 24 h, drug pre-treatment, vs colitis control) was “significantly reduced”, the “colon MPO levels (neutrophil accumulation)” value [1, 11] was “significantly reduced” and the “colon MPO levels” value [1, 12] was “significant improvement”. The “colon oedema (wet-to-dry weight ratio)” value [1, 12] was “significant reduction in wet-to-dry weight ratios”, the colon macroscopic score [1, 11] was “significantly lower colon macroscopic scores” and the food consumption ([1]; 24 h after TNBS, drug pre-treatment from 2 days before TNBS, vs drug-free colitis control) was “higher body weights and food intake”. For the same compound, the “change in body weight” value ([1]; 24 h after TNBS, drug pre-treatment, vs drug-free colitis control) was “higher body weights”, the “overall disease pathology / parameters measured” value ([1]; 24 h study) was “significantly improves disease pathology” and the “binding to the C3a receptor” value [5] was “does not bind”.

In the case of infliximab, the “colonic MPO levels” value [4, 13] is reported as “significantly reduced colonic MPO levels”, the food consumption [4, 13] is reported as “ate significantly more food than drug-free rats” and the “colon oedema (wet-to-dry weight ratio)” value ([4]; 8 days, pre-treated 3 mg/kg IV, P>0.05) is reported as “no significant reductions”. The colon histopathology [4, 6] was “showed an improvement in pathology”, the mortality ([4]; 8 days, pre-treatment 3 mg/kg IV) was 20% and the colon macroscopic score ([4]; Day 8, pre-treated 3 mg/kg IV, P<0.05) was “significantly decreased scores”. For the same compound, the “change in body weight” value ([4]; Day 8, pre-treated 3 mg/kg IV, P>0.05) was “only a small weight gain at Day 8; however, these levels were not significantly higher than colitis control rats”, the “overall disease parameters / markers” value [4, 10] was “did reduce the severity of lesions, it was not as effective as the C5a antagonist or prednisolone” and the “overall disease parameters / markers” value ([4]; pre-treatment (from 2 days before colitis induction), listed as Infliximab) was “significantly reduced disease parameters, however to a lesser extent than those observed in PMX53-treated rats”. For the same compound, the colon macroscopic score [1, 11] was “significant improvement seen in all treatment groups except for infliximab”.

For `C[C@]12C=CC(=O)C=C1CC[C@@H]1[C@@H]2[C@@H](O)C[C@@]2(C)[C@H]1CC[C@]2(O)C(=O)CO` [prednisolone], the colon histopathology ([4]; 8 days, post-treated 1 mg/kg/day SC, FIG. 8D) was “showed no improvement in disease pathology; also recorded: IC infiltration, E, extensive haemorrhage (H) and erosion of ML”, the “colonic MPO levels” value [4, 14] was “did not show any improvement in colonic MPO levels” and the “colonic tissue TNF-α levels” value [4, 14] was “no significant reduction”. For the same compound, the food consumption [4, 14] was “no improvement in food consumption”, the “colon oedema (wet-to-dry weight ratio)” value ([4]; 8 days, post-treatment 1 mg/kg/day SC) was “no effect on reducing oedema” and the mortality ([4]; 8 days, post-treatment (24 h after induction)) was “no significant effect on reducing mortality”. For the same compound, the mortality rate ([4]; 8 days, pre-treated 1 mg/kg/day SC) was 11%, the “colonic MPO levels” value [4, 15] was “significantly reduced colonic MPO levels” and the food consumption [4, 15] was “ate significantly more food than colitis control rats”. The “colon oedema (wet-to-dry weight ratio)” value ([4]; 8 days, pre-treated 1 mg/kg/day SC, P>0.05) was “no significant reductions”, the “change in body weight” value ([4]; 8 days, pre-treated or post-treated 1 mg/kg/day SC, P>0.05) was “lost weight over the 8 days, with no significant difference compared to colitis control rats; also recorded: lost considerable body weight” and the colon histopathology [4, 6] was “showed an improvement in pathology”. For the same compound, the colon macroscopic score ([4]; Day 8, post-treated 1 mg/kg/day SC, P>0.05) was “did not have any improvement in macroscopic scores”, the colon macroscopic score ([4]; Day 8, pre-treated 1 mg/kg/day SC, P<0.05) was “significantly improved macroscopic scores” and the “overall disease parameters / markers” value [4, 9] was “reversal of pathology was not seen; also recorded: no appreciable therapeutic effects”. The “overall disease parameters / markers” value [4, 10] was “only prednisolone pre-treated rats displayed any improvement in the disease parameters measured; also recorded: effective at reducing the majority of parameters measured”.
